Reference: patent US9133147B2, “Thrombin inhibitors” (Merck Sharp & Dohme Corp., priority 2012, dated 2015)
Where a name gives a salt, the structure may show the parent alone.

Each compound was assayed against human α-thrombin (Homo sapiens, UniProt P00734) (assay: In vitro assay for determining proteinase inhibition (thrombin Ki)). Settings: 25° C., 0.05 M TRIS buffer pH 7.4, 0.15 M NaCl, 0.1% PEG; sar-PR-pna or Z-GPR-afc substrate; competitive inhibition assumed.
Format: biochemical
Description: Unless otherwise stated, all NMR determinations were made using 400 MHz field strength. Ki data was obtained according to the procedure described in Lewis, et al. Thromb. Res. 1993, 70, 173 (assays of human-thrombin and human trypsin), and Lewis, et al. Thromb. Haemostasis 1995, 74, 1107-1112.
Relevant in vitro assays are referenced in Morrissette, et al., Bioorg. Med. Chem. Lett. 2004, 14, 4161-4164 and described in Lewis, et al. Thromb. Res. 1993, 70, 173 (assays of human α-thrombin and human trypsin), and Lewis, et al. Thromb. Haemostasis 1995, 74, 1107-1112. The assays were carried out at 25° C. in 0.05 M TRIS buffer pH 7.4, 0.15 M NaCl, 0.1% PEG. Trypsin assays also contained 1 mM CaCl2. In assays wherein rates of hydrolysis of a p-nitroanilide (pna) substrate were determined, a Thermomax 96-well plate reader was used was used to measure (at 405 nm) the time dependent appearance of p-nitroaniline. sar-PR-pna was used to assay human α-thrombin (Km=125 μM) and bovine trypsin (Km=125 μM). p-Nitroanilide substrate concentration was determined from measurements of absorbance at 342 nm using an extinction coefficient of 8270 cm^−1M^−1.
In certain studies with potent inhibitors (Ki<10 nM) where the degree of inhibition of thrombin was high, a more sensitive activity assay was employed. In this assay the rate of thrombin catalyzed hydrolysis of the fluorogenic substrate benzyloxycarbonyl-Gly-Pro-Arg-7-amino-4-trifluoromethylcoumarin (Z-GPR-afc, Lewis S. D. et al. (1998) J. Biol. Chem. 273, pp. 4843-4854) (Km=27 μM) was determined from the increase in fluorescence at 500 nm (excitation at 400 nm) associated with production of 7-amino-4-trifluoromethyl coumarin. Concentrations of stock solutions of Z-GPR-afc were determined from measurements of absorbance at 380 nm of the 7-amino-4-trifluoromethyl coumarin produced upon complete hydrolysis of an aliquot of the stock solution by thrombin.
Activity assays were performed by diluting a stock solution of substrate at least tenfold to a final concentration ≦0.1 Km into a solution containing enzyme or enzyme equilibrated with inhibitor. Times required to achieve equilibration between enzyme and inhibitor were determined in control experiments. Initial velocities of product formation in the absence (VO) or presence of inhibitor (Vi) were measured. Assuming competitive inhibition, and that unity is negligible compared Km/[S], [I]/e, and [I]/e (where [S], [I], and e respectively represent the total concentrations, of substrate, inhibitor and enzyme), the equilibrium constant (Ki) for dissociation of the inhibitor from the enzyme can be obtained from the dependence of VO/Vi on [I] shown in the following equation. VO/Vi=1+[I]/Ki

Row | SMILES | Ki [nM]
1 | CC(C)(C)[C@@H](O)C(=O)N1CCCC[C@H]1C(=O)NCc1cc(Cl)ccc1CN [Example 1, (2S)—N-[2-(aminomethyl)-5-chlorobenzyl]-1-[(2R)-2-hydroxy-3,3-dimethylbutanoyl]piperidine-2-carboxamide trifluoroacetate salt] | 7.3
2 | CC(C)(C)[C@@H](O)C(=O)N1CCNC[C@H]1C(=O)NCc1cc(Cl)ccc1CN [Example 2, (2S)—N-[2-(aminomethyl)-5-chlorobenzyl]-1-[(2R)-2-hydroxy-3,3-dimethylbutanoyl]piperazine-2-carboxamide bis trifluoroacetate salt] | 63
3 | CN1CCN(C(=O)[C@H](O)C(C)(C)C)[C@H](C(=O)NCc2cc(Cl)ccc2CN)C1 [Example 3, (2S)—N-[2-(aminomethyl)-5-chlorobenzyl]-1-[(2R)-2-hydroxy-3,3-dimethylbutanoyl]-4-methylpiperazine-2-carboxamide trifluoroacetate salt] | 34
4 | CC(C)(C)[C@@H](O)C(=O)N1CCOC[C@H]1C(=O)NCc1cc(Cl)ccc1CN [Example 4, (3S)—N-[2-(aminomethyl)-5-chlorobenzyl]-4-[(2R)-2-hydroxy-3,3-dimethylbutanoyl]morpholine-3-carboxamide trifluoroacetate salt] | 32
5 | CC(C)(C)[C@@H](O)C(=O)N1CCSC[C@H]1C(=O)NCc1cc(Cl)ccc1CN [Example 5, (3R)—N-[2-(aminomethyl)-5-chlorobenzyl]-4-[(2R)-2-hydroxy-3,3-dimethylbutanoyl]thiomorpholine-3-carboxamide trifluoroacetate salt] | 1.1
6 | CC(C)(C)[C@@H](O)C(=O)N1CC[S+]([O-])C[C@H]1C(=O)NCc1cc(Cl)ccc1CN (stereo partly drawn) [Example 6, (3R)—N-[2-(aminomethyl)-5-chlorobenzyl]-4-[(2R)-2-hydroxy-3,3-dimethylbutanoyl]thiomorpholine-3-carboxamide 1-oxide trifluoroacetate (salt)] | 78
7 | CC(C)(C)[C@@H](O)C(=O)N1CCS(=O)(=O)C[C@H]1C(=O)NCc1cc(Cl)ccc1CN [Example 7, (3R)—N-[2-(aminomethyl)-5-chlorobenzyl]-4-[(2R)-2-hydroxy-3,3-dimethylbutanoyl]thiomorpholine-3-carboxamide 1,1-dioxide trifluoroacetate salt] | 52
